According to paper PMC4198181, “Gold(I) Complexes of 9-Deazahypoxanthine as Selective Antitumor and Anti-Inflammatory Agents” (PLoS ONE, 2014):

Key:
[1] = system: HeLa cervix epitheloid carcinoma cells; test: MTT in vitro cytotoxicity, HeLa; format: cell-based, human; settings: 24 h treatment, read-out: IC50±S.E., HeLa
Protocol: (§1) In vitro cytotoxic activity was determined by the MTT assay in human breast adenocarcinoma (MCF7; ECACC no. 86012803), human osteosarcoma (HOS; ECACC no. 87070202), lung carcinoma (A549; ECACC no. 86012804), malignant melanoma (G361; ECACC no. 88030401), cervix epitheloid carcinoma (HeLa; ECACC no. 93021013), ovarian carcinoma (A2780; ECACC no. 93112519), cisplatin-resistant ovarian carcinoma (A2780R; […] ECACC no 105092802) cancer cell lines, purchased from European Collection of Cell Cultures (ECACC). […] The primary culture of human hepatocytes (HEP220, batch number HEP220819) was obtained from Biopredic International (France). The culture medium was Williams and HAM's F-12 (1∶1) supplemented with penicillin, streptomycin, ascorbic acid, linoleic acid, holo-transferin, ethanolamine, glucagon, insulin, dexamethasone, pyruvate, glucose, glutamine, amphotericin. The medium was enriched for plating with 2% foetal calf serum (v/v). The medium was exchanged for a serum-free medium the day after and the culture was stabilized for additional 24 h. Thereafter, the cells were ready for treatments. […] The MTT assay was performed spectrophotometrically at 540 nm (TECAN, Schoeller Instruments LLC). The cytotoxicity data were expressed as the percentage of viability, where 100% represented the treatments with vehicle (0.1% DMF or 0.1% DMSO). The cytotoxicity data from the cancer cell lines were acquired from three independent experiments (conducted in triplicate) using cells from different passages. The IC50 values were calculated from viability curves. The results are presented as arithmetic means±standard error of the mean (S.E.).

[2] = system: MCF7 breast carcinoma cells; test: MTT in vitro cytotoxicity, MCF7; format: cell-based, human; settings: 24 h treatment, read-out: IC50±S.E., MCF7
Protocol: as §1

[3] = system: A2780 ovarian carcinoma cells; test: MTT in vitro cytotoxicity, A2780; format: cell-based, human; settings: 24 h treatment, read-out: IC50±S.E., A2780
Protocol: as §1

[4] = system: 22Rv1 prostate carcinoma cells; test: MTT in vitro cytotoxicity, 22Rv1; format: cell-based, human; settings: 24 h treatment, read-out: IC50±S.E., 22Rv1
Protocol: as §1

[5] = system: A549 lung carcinoma cells; test: MTT in vitro cytotoxicity, A549; format: cell-based, human; settings: 24 h treatment, read-out: IC50±S.E., A549
Protocol: as §1

[6] = system: A2780R ovarian carcinoma cells resistant to cisplatin; test: MTT in vitro cytotoxicity, A2780R; format: cell-based, human; settings: for IC50: 24 h treatment, MTT, read-out: IC50±S.E., A2780R
Protocol: as §1

[7] = system: primary culture of human hepatocytes (HEP220); test: MTT in vitro cytotoxicity, primary human hepatocytes; format: cell-based; settings: 24 h treatment, MTT; read-out: IC50±S.E., HEP220 (healthy human hepatocytes)
Protocol: as §1

[8] = system: HOS osteosarcoma cells; test: MTT in vitro cytotoxicity, HOS; format: cell-based, human; settings: 24 h treatment, read-out: IC50±S.E., HOS
Protocol: as §1

[9] = system: G361 malignant melanoma cells; test: MTT in vitro cytotoxicity, G361; format: cell-based, human; settings: 24 h treatment, read-out: IC50±S.E., G361
Protocol: as §1

[10] = system: IL-1β secretion in LPS-stimulated macrophage-like THP-1 cells; test: LPS-induced IL-1β secretion in THP-1 macrophages (ELISA); format: cell-based, human; settings: 300 nM, 1 h pretreatment, 24 h after LPS
Protocol: (§2) For the determination of biological activity, we used the human monocytic leukaemia cell line THP-1 (ECACC, Salisbury, UK). The cells were cultivated at 37°C in the RPMI 1640 medium supplemented with 2 mM L-glutamine, 10% FBS, 100 U/mL of penicillin and 100 µg/mL of streptomycin in a humidified atmosphere containing 5% CO2. Stabilized cells (3rd–15th passage) were split into microtitration plates to get a concentration of 500 000 cells/mL and the differentiation to macrophages was induced by phorbol myristate acetate (PMA) dissolved in dimethyl sulfoxide (DMSO) at the final concentration of 50 ng/ml, and the cells were incubated for 24 h. In comparison with monocytes, differentiated macrophages tend to adhere to the bottoms of the cultivation plates. For next 24 h the cells were incubated with a fresh complete RPMI medium, i.e. containing antibiotics and FBS, without PMA. The medium was then aspirated, and the cells were washed with PBS and cultivated for next 24 hours in serum-free RPMI 1640 medium. These prepared macrophages were used for the detection of inflammatory response.
(§3) Differentiated macrophages were pretreated with 300 nM solutions of the tested complexes, HLn, AuCl, [AuCl(PPh3)], PPh3 and Auranofin dissolved in DMSO (the final DMSO concentration was 0.1%) and with 0.1% DMSO solution itself (vehicle) for 1 h; the given concentrations of the tested compounds lack the cytotoxic effect (cell viability >94%) based on the results of WST-1 test. The inflammatory response in pretreated macrophages was triggered by the addition of 1.0 µg/mL lipopolysaccharide (LPS) dissolved in water, while the control cells (CTRL) remained without the LPS treatment.
(§4) Macrophages, which were pretreated with the tested compounds (complexes 1–5, HLn, AuCl, [AuCl(PPh3)], PPh3 and Auranofin) for 1 h, were incubated with LPS for next 24 h. After this period, the medium was collected and the concentration of TNF-α, and IL-1β was determined by the Instant ELISA Kit according to the manufactures' manual.
(§5) The statistically significant differences between individual groups during anti- inflammatory testing were evaluated using a one-way ANOVA test for statistical analysis, followed by Tukey's post-hoc test for multiple comparisons. GraphPad Prism 5.02 (GraphPad Software Inc., San Diego, CA, USA) was used to perform the analysis. The results are presented as arithmetic means±S.E. values.

[11] = system: THP-1 monocytic leukaemia cells; test: WST-1 in vitro cytotoxicity, THP-1; format: cell-based, human; settings: 24 h treatment, WST-1, 0.16–10.00 µM; read-out: IC50±S.E., THP-1
Protocol: Before the in vitro anti-inflammatory testing, in vitro cytotoxicity on human monocytic leukaemia cells (THP-1, ECACC no. 88081201) was determined using the WST-1 assay. The THP-1 cells (floating monocytes, 500 000 cells/mL) were incubated in 100 µL of the serum-free RPMI 1640 medium and seeded into 96-well plates in triplicate at 37°C. Measurements were taken 24 h after the treatment with the tested compounds dissolved in 0.1% DMSO in the concentration range of 0.16–10.00 µM. Viability was determined by the WST-1 test according to the manufacturer's manual. The amount of the formed formazan (which correlates to the number of metabolically active cells in the culture) was calculated as a percentage of the control cells, which were treated only with 0.1% DMSO and was set-up as 100%. The IC50 values of the tested compounds were calculated from the obtained data. The WST-1 assay was performed spectrophotometrically at 440 nm (FLUOstar Omega, BMG Labtech).
The cytotoxicity data were expressed as the percentage of viability, where 100% represented the treatments with vehicle (0.1% DMF or 0.1% DMSO). The cytotoxicity data from the cancer cell lines were acquired from three independent experiments (conducted in triplicate) using cells from different passages. The IC50 values were calculated from viability curves. The results are presented as arithmetic means±standard error of the mean (S.E.). The significance of the differences between the results was assessed by the ANOVA analysis with p<0.05 considered to be significant (QC Expert 3.2, Statistical software, TriloByte Ltd., Pardubice, Czech Republic).

[12] = system: TNF-α secretion in LPS-stimulated macrophage-like THP-1 cells; test: LPS-induced TNF-α secretion in THP-1 macrophages (ELISA); format: cell-based, human; settings: 300 nM, 1 h pretreatment, 24 h after LPS
Protocol: as §2, §3, §4, §5

[13] = system: λ-carrageenan-induced hind paw edema; test: Carrageenan-induced hind paw edema; format: in vivo, Wistar-SPF rats; settings: i.p., dose equivalent in gold to 10 mg/kg Auranofin
Protocol: Wistar-SPF (6–8 weeks male) rats were obtained from AnLab, Ltd. (Prague, Czech Republic). The animals were kept in plexiglass cages at the constant temperature of 22±1°C and relative humidity of 55±5% for at least 1 week before the experiment. They were given food and water ad libitum. All the experimental procedures were performed according to the National Institutes of Health (NIH) Guide for the Care and Use of Laboratory Animals. In addition, all the tests were conducted under the guidelines of the International Association for the Study of Pain [61]. After a one-week adaptation period, male Wistar-SPF rats (200–250 g) were randomly assigned to five groups (n = 7) of the animals in the study. The first, control group, received 25% DMSO (v/v in water, intraperitoneal; i.p.). The next three groups were pretreated with complexes 2, 4 and 5, and involved into the carrageenan-treatment. The fifth group was treated with a non-steroidal anti-inflammatory drug Indomethacin (5 mg/kg), which served as a positive control group (Indomethacin + carrageenan).
The carrageenan-induced hind paw edema model was used for the determination of anti-inflammatory activity. Animals were i.p. pretreated with complexes 2, 4, and 5 (the dosages of the individual complexes were adjusted to contain the same amount of gold as in 10 mg/kg dose of Auranofin), Indomethacin (5 mg/kg), or 25% DMSO (v/v in water) 30 min prior to the injection of 1% λ-carrageenan solution (50 µL) into the plantar side of right hind paws of the rats. The paw volume was measured immediately after the carrageenan injection (this value was set-up as baseline value for the hind paw volume) and during the next 6 h after the administration of the edematogenic agent using a plethysmometer (model 7159, Ugo Basile, Varese, Italy). The degree of swelling was evaluated as a percentage of the change of the volume of the right hind paw after the carrageenan treatment from the baseline volume. A non-steroidal anti-inflammatory drug Indomethacin was used as a positive control and the obtained data were also compared with the previously reported profile of antiedematous activity for Auranofin [38]. After 6 h, the animals were sacrificed and the edematous feet were dissected, the tissue from the plantar parts was extracted, fixed and stained by a standard hematoxylin/eosin (HE) staining for cytological evaluation of polymorphonuclear cells infiltration.
as §5

SMILES	IC50 [1] [µM]	IC50 [2] [µM]	IC50 [3] [µM]	IC50 [4] [µM]	IC50 [5] [µM]	IC50 [6] [µM]	IC50 [7] [µM]	IC50 [8] [µM]	IC50 [9] [µM]	IC50 [11] [µM]	effect on LPS-induced TNF-α secretion [12]	also measured
N.N.[Cl][Pt][Cl] [cisplatin, reference compound]	> 50	17.9 ± 1.2	11.5 ± 0.5	26.9 ± 1.2	> 50	27 ± 1.5	> 50	20.5 ± 0.1	5.3 ± 0.2			resistance factor (RF), IC50(A2780R)/IC50(A2780) ([6]; ratio resistant/sensitive cells): 2.4
CCOc1ncnc2cc[n]([Au])c12.c1ccc(P(c2ccccc2)c2ccccc2)cc1 [complex 1]	22 ± 0.6	3.1 ± 0.2	4.8 ± 0.1	3.5 ± 0.1	20.7 ± 0.1	5.2 ± 0.3	24 ± 1.9	3.3 ± 0.1	3.5 ± 0.2	0.8 ± 0.1		level of IL-1β diminished by [10]: 32%
c1ccc(COc2ncnc3cc[nH]c23)cc1 [HL4, 6-benzyloxy-9-deazapurine]											stimulate the production	
[Cl][Au].c1ccc(P(c2ccccc2)c2ccccc2)cc1 [[AuCl(PPh3)], reference compound]											none of the reference compounds, such as AuCl, HLn, [AuCl(PPh3)] and PPh3, exhibited any expected effect	
c1ccc(P(c2ccccc2)c2ccccc2)cc1 [PPh3, triphenylphosphine]											none of the reference compounds, such as AuCl, HLn, [AuCl(PPh3)] and PPh3, exhibited any expected effect	effect on LPS-induced IL-1β secretion [10]: decreased the production of IL-1β by a manner comparable to free ligands; level of IL-1β diminished by [10]: ~32%
[Au][n]1ccc2ncnc(OCC3CCCO3)c21.c1ccc(P(c2ccccc2)c2ccccc2)cc1 [complex 3]	20.7 ± 0.2	2.2 ± 0.2	4.6 ± 0.3	21 ± 0.7	21.4 ± 0.2	5.3 ± 0.4	24.1 ± 2.4	4 ± 0.6	3.4 ± 0.2	1 ± 0.1		
c1ccc(CCOc2ncnc3cc[nH]c23)cc1 [HL5, 6-phenethyloxy-9-deazapurine]											stimulate the production	
[Au][n]1ccc2ncnc(OCc3ccccc3)c21.c1ccc(P(c2ccccc2)c2ccccc2)cc1 [complex 4]	14.3 ± 0.2	4 ± 0.9	4.6 ± 0.2	3.5 ± 0.2	> 20	5.1 ± 0.3	23.7 ± 2.1	1.8 ± 0.3	3.5 ± 0.2	1.7 ± 0.1		overall antiedematous / anti-inflammatory activity [13]: significant anti-inflammatory effects; antiedematous activity profile up to 180 min after carrageenan ([13]; 30 min before carrageenan): very similar pharmacological profiles of complexes 2 and 4 with the reference drug Indomethacin
CC(C)Oc1ncnc2cc[nH]c12 [HL2, 6-isopropyloxy-9-deazapurine]											stimulate the production	
